Source: the supplement of paper PMC10307832

Assays:
Assay in all cases: relative viability (nuclei count vs DMSO), 5 days (fraction); higher = more cells survive
[1] = compound: CCC1=CN=CN=C1N2CCN(CC2)CC3=NC4=C(N3)C=C(C=C4)C(F)(F)F + CC(C)C[C@H](NC(=O)[C@H](Cc1ccccc1)NC(=O)c1cnccn1)B(O)O [Bortezomib] (partner 0.002 µM)
Outline: (§1)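 Lung cancer cell lines were seeded in 1536-well plates and dosed by pin tool the next day, with either a single drug or a fixed anchor-drug dose combined with five library-drug doses (not always all listed) spaced in √10 steps. Five days later, one step fixed the cells and stained their nuclei (final 0.05% Triton X-100, 1% formaldehyde, 1 ug/ml Hoechst), and nuclei were counted on 4× images. Relative viability is the nuclei count in treated wells divided by the count in vehicle wells, and each value is the median of duplicate plates.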

[2] = compound: CCC1=CN=CN=C1N2CCN(CC2)CC3=NC4=C(N3)C=C(C=C4)C(F)(F)F + C[C@]1(O)C[C@@H](c2nc(-c3ccc4ccc(-c5ccccc5)nc4c3)c3c(N)nccn32)C1 [Linsitinib] (partner 1 µM)
Outline: as §1

[3] = compound: CCn1c(-c2nonc2N)nc2cnc(Oc3cccc(NC(=O)c4ccc(OCCN5CCOCC5)cc4)c3)cc21 + CC(=O)c1c(C)c2cnc(Nc3ccc(N4CCNCC4)cn3)nc2n(C2CCCC2)c1=O [Palbociclib] (partner 0.5 µM)
Outline: as §1

Mirin + Pemetrexed = compound: N=C1NC(=O)/C(=C/c2ccc(O)cc2)S1 [Mirin] + Nc1nc2[nH]cc(CCc3ccc(C(=O)N[C@@H](CCC(=O)O)C(=O)O)cc3)c2c(=O)[nH]1 [Pemetrexed] (partner 0.2 µM)
Outline: as §1

| Cell Line | relative viability ([1]; first compound 0.04 µM) | relative viability ([1]; first compound 0.1265 µM) | relative viability ([1]; first compound 0.4 µM) | relative viability ([1]; first compound 1.265 µM) | relative viability ([1]; first compound 4 µM) | relative viability ([2]; first compound 0.04 µM) | relative viability ([2]; first compound 0.1265 µM) | relative viability ([2]; first compound 0.4 µM) | relative viability ([2]; first compound 1.265 µM) | relative viability ([2]; first compound 4 µM) | relative viability ([3]; first compound 0.04 µM) | relative viability ([3]; first compound 0.1265 µM) | relative viability ([3]; first compound 0.4 µM) | relative viability ([3]; first compound 1.265 µM) | relative viability ([3]; first compound 4 µM) | relative viability (Mirin + Pemetrexed; first compound 0.25 µM) | relative viability (Mirin + Pemetrexed; first compound 2.5 µM) | relative viability (Mirin + Pemetrexed; first compound 7.906 µM) | relative viability (Mirin + Pemetrexed; first compound 25 µM) | relative viability (Mirin + Pemetrexed; first compound 0.7906 µM) |
| --- | --- | --- | --- | --- | --- | --- | --- | --- | --- | --- | --- | --- | --- | --- | --- | --- | --- | --- | --- | --- |
| HARA | 1.12 | 1.05 | 1.06 | 1.01 | 0.964 | 0.915 | 0.832 | 0.919 | 0.733 | 0.831 | 0.278 | 0.232 | 0.242 | 0.172 | 0.199 | 0.235 | 0.236 | 0.227 | 0.293 | – |
| NCI-H2405 | 0.892 | 0.703 | 0.968 | – | 1 | 0.958 | 1.01 | 0.833 | – | 1.02 | 0.572 | 0.361 | 0.304 | 0.234 | 0.222 | 1.1 | 1.16 | 1.14 | 1.07 | – |
| 201T | 1.09 | 1.06 | 1.04 | 1.09 | 1.14 | 0.922 | 1.04 | 0.998 | 0.88 | 1.01 | 0.359 | 0.366 | 0.368 | 0.354 | 0.345 | 0.307 | 0.337 | 0.336 | 0.302 | 0.309 |
| PC-3 [JPC-3] | 0.838 | 0.765 | 0.757 | 0.807 | 0.854 | 0.972 | 0.882 | 0.969 | 0.906 | 0.911 | 0.539 | 0.548 | 0.444 | 0.497 | 0.482 | 1.11 | 1.22 | 1.2 | 1.29 | 1.03 |
| NCI-H838 | 0.945 | 0.747 | 0.782 | 0.597 | 1.03 | 0.991 | 0.912 | 0.941 | 0.916 | 1.05 | 0.19 | 0.175 | 0.147 | 0.157 | 0.179 | 0.235 | 0.258 | 0.236 | 0.188 | 0.259 |
| NCI-H1792 | 0.885 | 0.782 | 0.926 | 1.04 | 1 | 0.522 | 0.543 | 0.497 | 0.424 | 0.511 | 0.694 | 0.583 | – | 0.542 | 0.582 | 0.772 | 1.15 | 0.708 | 0.844 | 0.653 |
| COR-L23 | 0.988 | 0.91 | 0.964 | 0.956 | 0.957 | 0.864 | 0.94 | 0.815 | 0.874 | 0.914 | 0.308 | 0.25 | 0.129 | 0.173 | 0.127 | 0.2 | 0.209 | 0.187 | 0.204 | 0.204 |
| HOP-62 | 0.869 | 0.819 | 0.648 | 0.677 | 0.947 | 1.27 | 1.02 | 0.983 | 0.87 | 0.77 | 0.45 | 0.371 | 0.424 | 0.279 | 0.365 | 0.36 | 0.316 | 0.288 | 0.361 | 0.286 |
| NCI-H1915 | 1.01 | 0.907 | 0.966 | 0.962 | 1.01 | 1.15 | 1.09 | 1.09 | 1.04 | 1.12 | 0.522 | 0.524 | 0.516 | 0.386 | 0.376 | 0.469 | 0.504 | 0.434 | 0.433 | 0.484 |
| BEN | 0.646 | 0.656 | 0.708 | 0.621 | 0.49 | 0.868 | 0.82 | 0.802 | 0.531 | 0.477 | 0.473 | 0.469 | 0.472 | 0.77 | 0.441 | 0.661 | 0.799 | 0.667 | 0.581 | 0.779 |
| NCI-H1437 | 0.528 | 0.484 | 0.431 | 0.474 | 0.504 | 1.03 | 0.967 | 0.896 | 0.836 | 0.634 | 0.355 | 0.367 | 0.389 | 0.279 | 0.331 | 0.313 | 0.377 | 0.345 | 0.31 | 0.351 |
| EMC-BAC-2 | 1.07 | 1.01 | 1.05 | 0.917 | 1.15 | 0.816 | 0.771 | 0.808 | 0.728 | 0.791 | 0.517 | 0.458 | 0.397 | 0.369 | 0.389 | 0.475 | 0.452 | 0.375 | 0.41 | 0.431 |
| NCI-H2087 | 0.859 | 0.805 | 0.824 | 0.65 | 0.766 | 1.08 | 1.01 | 1.08 | 0.795 | 0.754 | 0.362 | 0.218 | 0.336 | 0.2 | 0.228 | 0.69 | 0.66 | 0.678 | 0.708 | 0.715 |
| NCI-H650 | 0.68 | 0.797 | 0.672 | 0.841 | 0.959 | 0.7 | 1.03 | 1.01 | 0.864 | 0.804 | 0.349 | 0.297 | 0.255 | 0.201 | 0.184 | 1.05 | 0.928 | 0.711 | 0.94 | 0.865 |
| LXF-289 | 1.07 | 0.953 | 0.971 | 1.04 | 0.917 | 0.983 | 0.957 | 0.983 | 0.976 | 0.954 | 0.67 | 0.654 | 0.6 | 0.585 | 0.548 | 0.902 | 0.923 | 0.791 | 0.821 | 0.856 |
| LOU-NH91 | 0.408 | 0.543 | 0.507 | 0.523 | 0.504 | 0.807 | 0.923 | 0.963 | 0.87 | 1.04 | 0.508 | 0.476 | 0.502 | 0.422 | 0.421 | 0.375 | 0.357 | 0.399 | 0.376 | 0.389 |
| NCI-H2347 | 1.07 | 0.92 | 0.724 | – | 1.04 | 0.961 | 0.926 | 0.944 | 0.942 | 1.09 | 0.432 | 0.455 | 0.385 | 0.376 | 0.381 | 0.424 | 0.47 | 0.422 | 0.473 | 0.474 |
| NCI-H1993 | 1.16 | 0.952 | 0.927 | 1.25 | 1.01 | 0.81 | 0.799 | 0.753 | 0.72 | 0.838 | 0.479 | 0.659 | 0.642 | 0.695 | 0.626 | 0.625 | 0.578 | 0.541 | 0.584 | 0.633 |
| HCC-827 | 1.01 | 0.997 | 1.02 | 0.95 | 0.953 | 0.951 | 0.915 | 0.955 | 0.923 | 0.926 | 0.49 | 0.541 | 0.501 | 0.455 | 0.481 | 0.246 | 0.224 | 0.254 | 0.282 | 0.258 |
| NCI-H661 | 0.845 | 0.809 | 0.696 | – | 0.782 | 0.711 | 0.629 | 0.622 | – | 0.483 | 0.363 | 0.395 | 0.366 | 0.365 | 0.303 | 0.906 | 0.942 | 0.953 | 0.822 | 1.01 |
| CAL-12T | – | 0.997 | 0.888 | 1.06 | 1.07 | 0.744 | 0.771 | 0.731 | 0.754 | 0.901 | 0.778 | 0.619 | 0.47 | 0.345 | 0.298 | 1.15 | 1.15 | 1.29 | 1.37 | 1.11 |
| PC-14 | 0.938 | 0.815 | 0.856 | 0.848 | 0.935 | 0.918 | 0.896 | 0.965 | 0.931 | 0.982 | 0.578 | 0.432 | 0.466 | 0.486 | 0.414 | 0.127 | 0.143 | 0.134 | 0.171 | 0.14 |
| NCI-H23 | 0.868 | 1.13 | 0.905 | 0.98 | 1.16 | 0.681 | 0.689 | 0.59 | 0.623 | 0.638 | 0.708 | 0.521 | 0.547 | 0.394 | 0.353 | 0.782 | 0.643 | 0.598 | 0.541 | – |
| SK-LU-1 | 1.09 | 1.03 | 1.16 | – | 1.13 | 1.28 | 1.24 | 1.32 | 1 | 1.06 | 0.434 | 0.368 | 0.337 | 0.275 | 0.295 | 0.983 | 0.931 | 0.855 | 0.823 | 0.992 |
| HCC-366 | 1 | 1.06 | 1.05 | – | 1.01 | 0.907 | 0.595 | 0.525 | – | 0.661 | 0.367 | 0.375 | 0.354 | 0.105 | 0.0645 | 0.178 | 0.177 | 0.167 | 0.218 | 0.251 |
| SW 1573 | 1.09 | 1.08 | 0.937 | 0.893 | 0.892 | 0.574 | 0.683 | 0.862 | 0.777 | 0.866 | 0.454 | 0.355 | 0.349 | 0.206 | 0.211 | 0.742 | 0.818 | 0.715 | 0.642 | 0.84 |
| HCC-44 | 0.853 | 0.798 | 0.854 | 0.89 | 0.866 | 0.652 | 0.648 | 0.666 | 0.643 | 0.634 | 1.01 | 1.01 | 1.02 | 1.08 | 0.878 | 0.604 | 0.677 | 0.633 | 0.694 | 0.835 |
